Test results as given in patent US9309242B2, “Substituted pyrido[2,3-b]pyrazines as FGFR kinase inhibitors” (priority 2011, dated 2016).
Structures can show the parent of a compound that is named as a salt. Where two headings read alike, the source gives them in different places.

What was measured:
FGFR2 (h) = FGFR2 (h) (Homo sapiens, UniProt P21802); assay: FGFR2 (enzymatic assay), TR-FRET; format: biochemical; details: enzymatic assay, read-out: FGFR 2 pIC50 (converted)
Description: In a final reaction volume of 30 μL, FGFR2 (h) (150 ng/ml) was incubated with 50 mM HEPES pH 7.5, 6 mM MnCl2, 1 mM DTT, 0.1 mM Na3VO4, 0.01% Triton-X-100, 500 nM Btn-Flt3 and 0.4 μM ATP in the presence of compound (1% DMSO final).

[1] = target: T1, Ba/F3-FGFR1-transfected cells (Homo sapiens, UniProt P11362); assay: Ba/F3-FGFR1 (minus IL3) cellular proliferation assay, Alamar Blue; format: cell-based
T1 construct: BAF3-FGFR1 (MIN IL3) pIC50; other: minus IL3
Description: (§1) Ba/F3-FGFR1 (Minus IL3 or Plus IL3) (Cellular Proliferation Assay)
(§2) In a 384 well plate, 100 nl of compound dilution in DMSO was sprayed before adding 50 μl cell culture medium (phenol red free RPMI-1640, 10% FBS, 2 mM L-Glutamine and 50 μg/ml Gentamycin) containing 20000 cells per well of Ba/F3-FGFR1-transfected cells. Cells were put in an incubator at 37° C. and 5% CO2. After 24 hours, 10 μl of Alamar Blue solution (0.5 mM K3Fe(CN)6, 0.5 mM K4Fe(CN)6, 0.15 mM Resazurin and 100 mM Phosphate Buffer) was added to the wells, incubated for 4 hours at 37° C. and 5% CO2 before RFU's (Relative Fluorescence Units) (ex. 540 nm., em. 590 nm.) were measured in a fluororescence plate reader.

FGFR3 (h) = FGFR3 (h) (Homo sapiens, UniProt P22607); assay: FGFR3 (enzymatic assay), TR-FRET; format: biochemical; details: read-out: FGFR 3 pIC50 (converted)
Sequence of FGFR3 (h) (P22607 23-806): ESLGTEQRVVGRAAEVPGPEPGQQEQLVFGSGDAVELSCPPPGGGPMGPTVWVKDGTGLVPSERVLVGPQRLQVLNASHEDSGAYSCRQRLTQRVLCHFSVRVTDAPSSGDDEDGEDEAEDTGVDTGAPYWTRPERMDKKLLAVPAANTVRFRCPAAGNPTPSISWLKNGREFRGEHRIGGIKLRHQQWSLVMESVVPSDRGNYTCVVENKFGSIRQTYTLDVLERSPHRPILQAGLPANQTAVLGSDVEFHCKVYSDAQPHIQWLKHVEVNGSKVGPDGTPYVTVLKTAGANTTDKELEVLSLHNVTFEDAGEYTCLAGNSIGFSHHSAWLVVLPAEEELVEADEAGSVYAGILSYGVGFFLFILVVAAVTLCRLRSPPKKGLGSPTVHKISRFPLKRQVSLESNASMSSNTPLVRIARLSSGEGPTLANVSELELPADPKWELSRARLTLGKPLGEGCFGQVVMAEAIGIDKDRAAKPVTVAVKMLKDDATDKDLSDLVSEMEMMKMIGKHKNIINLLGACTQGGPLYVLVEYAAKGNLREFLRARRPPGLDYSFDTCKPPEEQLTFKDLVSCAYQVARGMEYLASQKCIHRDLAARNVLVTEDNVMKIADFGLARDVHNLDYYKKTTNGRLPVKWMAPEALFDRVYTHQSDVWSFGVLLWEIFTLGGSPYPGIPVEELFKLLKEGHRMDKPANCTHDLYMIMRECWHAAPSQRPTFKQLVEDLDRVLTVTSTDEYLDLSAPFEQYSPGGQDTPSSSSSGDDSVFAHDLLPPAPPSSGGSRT
Source text: Time-Resolved Fluorescence Resonance Energy Transfer (TR-FRET) signal (ex340 nm.

[2] = system: Ba/F3-KDR-transfected cells; assay: Ba/F3-KDR (plus IL3) cellular proliferation assay, counterscreen with 10 ng/ml murine IL3; format: cell-based; details: plus IL3 (10 ng/ml murine IL3, counterscreen)
Description: (§3) Ba/F3-KDR (Minus IL3 or Plus IL3) (Cellular Proliferation Assay)
as §2, with “n1” for “nl”, “Ba/F3-KDR-transfected” for “Ba/F3-FGFR1-transfected”
(§4) As a counterscreen the same experiment was performed in the presence of 10 ng/ml murine IL3.

[3] = target: Ba/F3-FGFR4-transfected cells (Homo sapiens, UniProt P22455); assay: Ba/F3-FGFR4 cellular proliferation assay, Alamar Blue; format: cell-based
Description: Ba/F3-FGFR4 (Cellular Proliferation Assay)
as §2, with “n1” for “nl”, “Ba/F3-FGFR4-transfected” for “Ba/F3-FGFR1-transfected”

FGFR4 (h) = FGFR4 (h) (Homo sapiens, UniProt P22455); assay: FGFR4 (enzymatic assay), TR-FRET; format: biochemical; details: FGFR 4 pIC50, enzymatic assay
Sequence of FGFR4 (h) (P22455 22-802): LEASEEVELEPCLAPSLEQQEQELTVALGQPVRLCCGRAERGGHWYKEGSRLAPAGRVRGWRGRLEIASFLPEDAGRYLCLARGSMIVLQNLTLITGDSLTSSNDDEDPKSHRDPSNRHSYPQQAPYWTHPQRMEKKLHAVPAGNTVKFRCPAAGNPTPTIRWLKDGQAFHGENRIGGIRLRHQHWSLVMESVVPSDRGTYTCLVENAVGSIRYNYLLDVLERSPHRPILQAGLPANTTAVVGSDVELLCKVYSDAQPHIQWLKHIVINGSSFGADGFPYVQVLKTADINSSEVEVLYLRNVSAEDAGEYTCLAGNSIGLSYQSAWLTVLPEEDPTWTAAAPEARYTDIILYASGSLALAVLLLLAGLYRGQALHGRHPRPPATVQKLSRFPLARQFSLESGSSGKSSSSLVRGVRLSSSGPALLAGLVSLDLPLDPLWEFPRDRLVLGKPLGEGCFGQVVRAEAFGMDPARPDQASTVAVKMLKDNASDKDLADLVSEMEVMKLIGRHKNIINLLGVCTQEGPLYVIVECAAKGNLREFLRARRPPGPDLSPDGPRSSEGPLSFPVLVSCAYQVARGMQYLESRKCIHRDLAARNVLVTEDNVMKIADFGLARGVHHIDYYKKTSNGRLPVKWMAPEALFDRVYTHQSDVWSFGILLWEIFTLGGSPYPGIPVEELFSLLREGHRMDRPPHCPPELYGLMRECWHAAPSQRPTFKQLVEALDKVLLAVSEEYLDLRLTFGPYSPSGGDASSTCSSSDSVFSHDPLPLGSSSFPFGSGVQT

[4] = target: T2, Ba/F3-FGFR3-transfected cells (Homo sapiens, UniProt P22607); assay: Ba/F3-FGFR3 (minus IL3) cellular proliferation assay, Alamar Blue; format: cell-based
T2 construct: BAF3-FGFR3 (MIN IL3) pIC50; other: minus IL3
T2 sequence (P22607 whole entry, change not shown): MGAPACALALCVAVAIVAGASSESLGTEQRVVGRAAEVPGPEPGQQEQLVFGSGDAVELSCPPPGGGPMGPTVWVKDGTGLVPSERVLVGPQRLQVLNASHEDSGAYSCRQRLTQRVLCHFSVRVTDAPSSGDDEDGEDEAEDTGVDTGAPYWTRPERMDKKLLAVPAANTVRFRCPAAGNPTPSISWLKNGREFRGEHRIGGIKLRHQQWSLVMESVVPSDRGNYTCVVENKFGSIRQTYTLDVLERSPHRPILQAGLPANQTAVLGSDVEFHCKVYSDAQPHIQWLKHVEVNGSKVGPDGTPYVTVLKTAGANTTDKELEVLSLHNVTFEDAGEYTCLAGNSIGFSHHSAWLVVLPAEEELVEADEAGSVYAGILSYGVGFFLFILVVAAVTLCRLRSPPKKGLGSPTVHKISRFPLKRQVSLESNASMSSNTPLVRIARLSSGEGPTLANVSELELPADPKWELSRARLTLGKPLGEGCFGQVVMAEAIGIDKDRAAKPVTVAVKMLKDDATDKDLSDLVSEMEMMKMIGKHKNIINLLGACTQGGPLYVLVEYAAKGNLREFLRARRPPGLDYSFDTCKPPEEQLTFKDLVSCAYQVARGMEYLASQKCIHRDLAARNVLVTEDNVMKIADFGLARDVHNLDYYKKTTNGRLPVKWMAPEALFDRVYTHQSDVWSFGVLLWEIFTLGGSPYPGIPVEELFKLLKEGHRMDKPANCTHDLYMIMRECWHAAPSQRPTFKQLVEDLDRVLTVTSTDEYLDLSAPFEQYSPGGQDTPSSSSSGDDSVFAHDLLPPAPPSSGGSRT
Description: (§5) Ba/F3-FGFR3 (Minus IL3 or Plus IL3) (Cellular Proliferation Assay)
as §2, with “Ba/F3-FGFR3-transfected” for “Ba/F3-FGFR1-transfected”, “reader. […]” for “reader.”

KDR (h) = KDR (h) (Homo sapiens, UniProt P35968); assay: KDR (VEGFR2) (enzymatic assay), TR-FRET; format: biochemical; details: read-out: VEGFR 2 (KDR) pIC50 (converted)
Description: KDR (VEGFR2) (Enzymatic Assay)
In a final reaction volume of 30 μL, KDR (h) (150 ng/ml) was incubated with 50 mM HEPES pH 7.5, 6 mM MnCl2, 1 mM DTT, 0.1 mM Na3VO4, 0.01% Triton-X-100, 500 nM Btn-Flt3 and 3 μM ATP in the presence of compound (1% DMSO final). After incubation for 120 minutes at room temperature the reaction was stopped with 2.27 nM EU-anti P-Tyr, 7 mM EDTA, 31.25 nM SA-XL-665 and 0.02% BSA which was present for 60 minutes at room temperature. Time-Resolved Fluorescence Resonance Energy Transfer (TR-FRET) signal (ex340 nm. Em 620 nm, em 655 nm) was measured afterwards and results are expressed in RFU (Relative Fluorescence Units).

[5] = system: Ba/F3-FGFR3-transfected cells; assay: Ba/F3-FGFR3 (plus IL3) cellular proliferation assay, counterscreen with 10 ng/ml murine IL3; format: cell-based; details: plus IL3 (10 ng/ml murine IL3, counterscreen)
Description: as §5
as §2, with “Ba/F3-FGFR3-transfected” for “Ba/F3-FGFR1-transfected”
as §4

[6] = system: Ba/F3-FGFR1-transfected cells; assay: Ba/F3-FGFR1 (plus IL3) cellular proliferation assay, counterscreen with 10 ng/ml murine IL3; format: cell-based; details: plus IL3 (10 ng/ml murine IL3, counterscreen)
Description: as §1, §2, §4

FGFR1 (h) = FGFR1 (h) (Homo sapiens, UniProt P11362); assay: FGFR1 (enzymatic assay), TR-FRET; format: biochemical; details: read-out: FGFR 1 pIC50 (converted)
[7] = target: T3, Ba/F3-KDR-transfected cells (Homo sapiens, UniProt P35968); assay: Ba/F3-KDR (minus IL3) cellular proliferation assay, Alamar Blue; format: cell-based
T3 construct: BAF3-KDR (MIN IL3) pIC50; other: minus IL3
T3 sequence (P35968 whole entry, change not shown): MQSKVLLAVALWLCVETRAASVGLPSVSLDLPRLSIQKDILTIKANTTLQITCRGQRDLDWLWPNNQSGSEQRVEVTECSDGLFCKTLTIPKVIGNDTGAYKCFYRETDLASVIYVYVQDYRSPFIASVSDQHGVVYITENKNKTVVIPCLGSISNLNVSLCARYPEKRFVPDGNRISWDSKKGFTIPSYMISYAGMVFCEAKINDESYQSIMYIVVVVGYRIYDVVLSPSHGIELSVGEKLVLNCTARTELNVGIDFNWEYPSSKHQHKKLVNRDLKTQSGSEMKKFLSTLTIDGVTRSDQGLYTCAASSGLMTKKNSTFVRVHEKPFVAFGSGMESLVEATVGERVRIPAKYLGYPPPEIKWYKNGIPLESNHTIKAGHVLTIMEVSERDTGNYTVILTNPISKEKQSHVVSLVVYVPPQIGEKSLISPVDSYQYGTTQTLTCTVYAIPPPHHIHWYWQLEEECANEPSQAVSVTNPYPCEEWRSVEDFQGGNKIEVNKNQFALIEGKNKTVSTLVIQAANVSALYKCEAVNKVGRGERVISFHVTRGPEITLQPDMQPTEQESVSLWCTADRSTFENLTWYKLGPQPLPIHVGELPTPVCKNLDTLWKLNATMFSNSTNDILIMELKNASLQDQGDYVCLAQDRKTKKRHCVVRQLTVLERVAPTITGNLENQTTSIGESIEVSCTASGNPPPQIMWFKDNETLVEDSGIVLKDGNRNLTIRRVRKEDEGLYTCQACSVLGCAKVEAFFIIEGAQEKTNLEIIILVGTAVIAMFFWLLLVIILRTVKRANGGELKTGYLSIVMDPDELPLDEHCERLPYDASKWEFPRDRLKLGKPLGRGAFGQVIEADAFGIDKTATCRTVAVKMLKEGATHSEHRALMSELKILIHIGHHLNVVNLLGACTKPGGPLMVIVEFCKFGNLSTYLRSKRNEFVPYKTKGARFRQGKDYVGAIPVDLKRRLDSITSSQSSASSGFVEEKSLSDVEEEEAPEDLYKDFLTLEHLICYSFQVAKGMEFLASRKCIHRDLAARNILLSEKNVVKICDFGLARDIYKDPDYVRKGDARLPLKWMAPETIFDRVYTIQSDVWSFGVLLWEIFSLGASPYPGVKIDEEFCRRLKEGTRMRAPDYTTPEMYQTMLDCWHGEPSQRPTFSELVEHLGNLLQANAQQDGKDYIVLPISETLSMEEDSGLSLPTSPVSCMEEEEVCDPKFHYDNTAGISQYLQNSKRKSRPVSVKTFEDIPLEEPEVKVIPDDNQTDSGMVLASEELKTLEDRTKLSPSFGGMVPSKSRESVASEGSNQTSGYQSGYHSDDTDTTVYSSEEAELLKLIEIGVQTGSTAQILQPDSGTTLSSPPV
Description: as §3
as §2, with “n1” for “nl”, “Ba/F3-KDR-transfected” for “Ba/F3-FGFR1-transfected”, “reader. […]” for “reader.”

[8] = average values if tested multiple times

Sequence of FGFR2 (h) (P21802 22-821): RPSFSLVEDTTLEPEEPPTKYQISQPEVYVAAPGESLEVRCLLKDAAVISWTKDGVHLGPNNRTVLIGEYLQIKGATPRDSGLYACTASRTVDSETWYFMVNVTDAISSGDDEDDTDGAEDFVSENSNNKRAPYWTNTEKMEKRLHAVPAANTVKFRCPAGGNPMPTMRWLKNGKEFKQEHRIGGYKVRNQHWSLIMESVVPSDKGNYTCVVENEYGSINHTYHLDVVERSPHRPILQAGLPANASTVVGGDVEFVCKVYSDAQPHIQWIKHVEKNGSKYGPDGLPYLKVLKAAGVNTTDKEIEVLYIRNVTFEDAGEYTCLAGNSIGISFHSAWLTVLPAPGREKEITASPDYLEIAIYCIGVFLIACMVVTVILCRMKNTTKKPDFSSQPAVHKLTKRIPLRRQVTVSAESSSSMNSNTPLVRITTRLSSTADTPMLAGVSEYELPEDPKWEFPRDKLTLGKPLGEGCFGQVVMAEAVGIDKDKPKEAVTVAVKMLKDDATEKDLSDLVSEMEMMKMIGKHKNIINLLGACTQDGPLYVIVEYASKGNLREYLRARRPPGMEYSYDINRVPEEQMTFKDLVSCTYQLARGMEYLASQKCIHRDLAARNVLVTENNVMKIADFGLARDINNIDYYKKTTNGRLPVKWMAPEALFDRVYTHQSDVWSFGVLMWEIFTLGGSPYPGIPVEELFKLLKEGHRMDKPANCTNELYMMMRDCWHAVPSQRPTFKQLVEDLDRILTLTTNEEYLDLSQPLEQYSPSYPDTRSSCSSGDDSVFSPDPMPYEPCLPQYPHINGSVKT

| SMILES | IC50 (FGFR2 (h); [8]) [nM] | BAF3-FGFR1 (MIN IL3) pIC50 [1] | IC50 (FGFR3 (h); [8]) [nM] | BAF3-KDR (PLUS IL3) pIC50 [2] | BAF3-FGFR4 pIC50 [3] | IC50 (FGFR4 (h); [8]) [nM] | BAF3-FGFR3 (MIN IL3) pIC50 [4] | IC50 (KDR (h); [8]) [nM] | BAF3-FGFR3 (PLUS IL3) pIC50 [5] | BAF3-FGFR1 (PLUS IL3) pIC50 [6] | IC50 (FGFR1 (h); [8]) [nM] | BAF3-KDR (MIN IL3) pIC50 [7] | IC50 (FGFR2 (h)) [nM] | IC50 (FGFR3 (h)) [nM] | IC50 (FGFR4 (h)) [nM] | IC50 (KDR (h)) [nM] | IC50 (FGFR1 (h)) [nM] |
| --- | --- | --- | --- | --- | --- | --- | --- | --- | --- | --- | --- | --- | --- | --- | --- | --- | --- |
| COc1cc(OC)cc(N(CC(O)C(F)(F)F)c2ccc3ncc(-c4cnn(C)c4)nc3n2)c1 (single isomer, unassigned) [Compound 34] | 4.57 | 7.18 | 1.35 | <5 | 6.64 | 7.08 | 6.97 | 331 | <5 | <5 | 3.55 | <5 | – | – | – | – | – |
| COCC(O)CN(c1ccc2ncc(-c3cnn(C)c3)nc2n1)c1cc(OC)cc(OC)c1F (single isomer, unassigned) [Compound 59] | 1.82 | 7.60 | 1.23 | <5 | 7.19 | 2.19 | 7.71 | 25.1 | <5 | <5 | ~1.78 | 5.73 | – | – | – | – | – |
| COc1cc(OC)c(F)c(N(CC(O)COC(C)C)c2ccc3ncc(-c4cnn(C)c4)nc3n2)c1 (single isomer, unassigned) [Compound 78] | 2.75 | 7.59 | 2.34 | <5 | 7.03 | 2.51 | 7.70 | 15.1 | <5 | <5 | 2.4 | 6.13 | – | – | – | – | – |
| COc1cc(OC)c(F)c(N(CC(O)COC(C)C)c2ccc3ncc(-c4cnn(C)c4)nc3n2)c1 (single isomer, unassigned) [Compound 79] | 2.95 | 7.58 | 1.66 | <5 | 7.28 | 2 | 7.63 | 25.7 | <5 | <5 | 2.34 | 5.73 | – | – | – | – | – |
| COc1ccc(Cl)c(N(CC2CCC(=O)N2)c2ccc3ncc(-c4cnn(C)c4)nc3n2)c1Cl (single isomer, unassigned) [Compound 91] | – | 5.13 | – | <5 | <5 | – | 5.17 | – | <5 | <5 | – | <5 | 145 | 138 | > 1000 | 741 | 219 |
| COc1cc(OC)c(F)c(N(CC2CCOC2)c2ccc3ncc(-c4cnn(C)c4)nc3n2)c1 (single isomer, unassigned) [Compound 171] | – | 7.10 | – | <5 | 6.55 | – | 7.28 | – | <5 | <5 | – | 5.63 | 2.57 | 1.55 | 3.72 | ~14.5 | 3.55 |
| COc1cc(OC)c(F)c(N(CC2CCOC2)c2ccc3ncc(-c4cnn(C)c4)nc3n2)c1 (single isomer, unassigned) [Compound 172] | – | 6.54 | – | <5 | 6.33 | – | ~7.06 | – | <5 | <5 | – | 5.35 | 4.47 | 3.02 | ~15.8 | 45.7 | 3.72 |
| COc1cc(OC)c(F)c(N(Cc2ncc[nH]2)c2ccc3ncc(-c4cnn(C)c4)nc3n2)c1 [23-Sulfate salt] | 2.09 | 8.94 | 1.12 | <5 | 7.88 | 1.26 | ~8.64 | 7.94 | <5 | <5 | 0.589 | 6.51 | – | – | – | – | – |
